According to article PMC6150201, “Synthesis and Antitumor Activity of Novel Arylpiperazine Derivatives Containing the Saccharin Moiety” (Molecules : A Journal of Synthetic Chemistry and Natural …, 2017):
Like-named read-outs stand apart in the source and are kept apart here.

How the values were obtained:
DU145 cells [1] = assay: In vitro cytotoxicity, CCK-8 assay, DU145 cells; type: cell-based, human; conditions: for IC50: androgen-insensitive human prostate cancer cell line, CCK-8, 24 h exposure, mean ± SD of three experiments; for selective activity for DU145 cells over other cancer cells: in words, from IC50 comparison
Procedure: (§1) The synthesized target compounds 4–21 were evaluated for their in vitro cytotoxic activities against three human prostate cancer cell lines (PC-3, LNCaP, and DU145) and compared with their effects on the human prostate epithelial cell line WPMY-1 by CCK-8 assay.
(§2) PC-3 and WPMY-1 cells were cultured in Dulbecco’s modified Eagle’s medium (DMEM, Invitrogen, Carlsbad, CA, USA) supplemented with 10% fetal bovine serum (FBS, Hyclone, Logan, UT, USA), 100 U/mL penicillin, and 0.1 mg/mL streptomycin (Invitrogen). DU145 cells were cultured in RPMI1640 media supplemented with 10% fetal bovine serum (FBS, Hyclone), 100 U/mL penicillin, and 0.1 mg/mL streptomycin (Invitrogen). LNCaP cells were cultured in F12 media supplemented with 10% fetal bovine serum (FBS, Hyclone), 100 U/mL penicillin, and 0.1 mg/mL streptomycin (Invitrogen). The cells were incubated at 37 °C in a humidified atmosphere with 5% CO2.
(§3) Cell proliferation was measured with the Cell Counting Kit-8 (CCK-8) assay kit (Dojindo Corp., Kumamoto, Japan). Cells were harvested during their logarithmic growth phase, seeded in 96-well plates at a density of 1 × 10^5 cells/mL, and cultured at 37 °C in a humidified incubator (5% CO2) for 24 h, followed by exposure to various concentrations of compounds tested for 24 h. Subsequently, 10 μL of CCK-8 (Dojindo) was added to each well, and the cells were then incubated for an additional 1 h at 37 °C to convert WST-8 into formazan. Cell growth inhibition was determined by measuring the absorbance (Abs) at λ = 450 nm using a microplate reader. Three independent experiments were performed. Cell growth inhibition was calculated according to the following equation: Growth inhibition = (1 − OD of treated cells / OD of control cells) × 100%
(§4) The half maximal inhibitory concentrations (IC50) were obtained from a linear regression analysis of the concentration-response curves plotted for each tested compound.

PC-3 cells [2] = assay: In vitro cytotoxicity, CCK-8 assay, PC-3 cells; type: cell-based, human; conditions: for IC50: PC-3, androgen-insensitive human prostate cancer cell line, CCK-8, 24 h exposure, mean ± SD of three experiments; for selective activity for PC-3 cells over other cancer cells: from IC50 comparison
Procedure: as §1, §2, §3, §4

WPMY-1 cells = assay: In vitro cytotoxicity, CCK-8 assay, WPMY-1 prostate epithelial cells; type: cell-based, human; conditions: for IC50: WPMY-1, human prostate epithelial cell line, CCK-8, 24 h exposure, mean ± SD of three experiments
Procedure: as §1, §2, §3, §4

LNCaP cells [3] = assay: In vitro cytotoxicity, CCK-8 assay, LNCaP cells; type: cell-based, human; conditions: for IC50: LNCaP, androgen-sensitive human prostate cancer cell line, CCK-8, 24 h exposure, mean ± SD of three experiments; for selective activity for LNCaP cells over other cancer cells: from IC50 comparison
Procedure: as §1, §2, §3, §4

PC-3 cells [4] = test system: PC-3 cells; design: method as in PMID 24910245; conditions: reference compound, SD not given; cited from earlier work
DU145 cells [5] = test system: DU145 cells; design: method as in PMID 24910245; conditions: reference compound, SD not given; cited from earlier work
LNCaP cells [6] = test system: LNCaP cells; design: method as in PMID 24910245; conditions: reference compound, SD not given; cited from earlier work

SMILES	IC50 (DU145 cells [1]; Homo sapiens, DU-145, 24 h) [µM]	IC50 (DU145 cells [1]) [µM]	selective activity for DU145 cells over other cancer cells (DU145 cells [1])	IC50 (PC-3 cells [2]) [µM]	melting point [°C]	IC50 (WPMY-1 cells) [µM]	IC50 (LNCaP cells [3]) [µM]	selective activity for PC-3 cells over other cancer cells (PC-3 cells [2]; in words)	cytotoxic effects on human epithelial prostate normal cells WPMY-1 (in words) (WPMY-1 cells)	selective activity for LNCaP cells over other cancer cells (LNCaP cells [3]; in words)	cytotoxic activity for PC-3 cells (in words) (PC-3 cells [2]; in words)	cytotoxic activity for LNCaP cells (in words) (LNCaP cells [3]; in words)	IC50 (PC-3 cells [4]) [µM]	IC50 (DU145 cells [5]) [µM]	IC50 (LNCaP cells [6]) [µM]
O=C1c2ccccc2S(=O)(=O)N1Cc1ccc(CCN2CCN(c3ccccc3)CC2)cc1 [Compound 4, Saccharin N-(1-(4-(methyl)phenethyl)-4-phenylpiperazine)]	< 2	1.28 ± 0.04	excellent selective activity	> 50	147 to 148	> 50	> 50								
O=C1c2ccccc2S(=O)(=O)N1Cc1ccc(CCN2CCN(c3ccccn3)CC2)cc1 [Compound 5, Saccharin N-(1-(4-(methyl)phenethyl)-4-(pyridin-2-yl)piperazine)]	3.57 ± 0.08		excellent selective activity	> 50	149 to 150	> 50	> 50								
O=C1c2ccccc2S(=O)(=O)N1Cc1ccc(CCN2CCN(c3ncccn3)CC2)cc1 [Compound 6, Saccharin N-(2-(4-(4-(methyl)phenethyl)piperazin-1-yl)pyrimidine)]	> 50			4.84 ± 0.17	153 to 154	48.3 ± 0.56	> 50	excellent selective activity							
Cc1cccc(N2CCN(CCc3ccc(CN4C(=O)c5ccccc5S4(=O)=O)cc3)CC2)c1 [Compound 7, Saccharin N-(1-(4-(methyl)phenethyl)-4-m-tolylpiperazine)]	3.65 ± 0.1		excellent selective activity	> 50	126 to 127	> 50	> 50								
Cc1ccc(N2CCN(CCc3ccc(CN4C(=O)c5ccccc5S4(=O)=O)cc3)CC2)cc1 [Compound 8, Saccharin N-(1-(4-(methyl)phenethyl)-4-p-tolylpiperazine)]	> 50			> 50	130 to 131		> 50								
COc1cccc(N2CCN(CCc3ccc(CN4C(=O)c5ccccc5S4(=O)=O)cc3)CC2)c1 [Compound 9, Saccharin N-(1-(4-(methyl)phenethyl)-4-(3-methoxyphenyl)piperazine)]	> 50			5.43 ± 0.18	134 to 135	> 50	> 50	excellent selective activity							
COc1ccc(N2CCN(CCc3ccc(CN4C(=O)c5ccccc5S4(=O)=O)cc3)CC2)cc1 [Compound 10, Saccharin N-(1-(4-(methyl)phenethyl)-4-(4-methoxyphenyl)piperazine)]	2.28 ± 0.05			4.38 ± 0.13	149 to 150	> 50	> 50								
O=C1c2ccccc2S(=O)(=O)N1Cc1ccc(CCN2CCN(c3ccccc3F)CC2)cc1 [Compound 11, Saccharin N-(1-(4-(methyl)phenethyl)-4-(2-fluorophenyl)piperazine)]	> 50			> 50	137 to 138	> 50	47.5 ± 2.17								
O=C1c2ccccc2S(=O)(=O)N1Cc1ccc(CCN2CCN(c3ccc(F)cc3)CC2)cc1 [Compound 12, Saccharin N-(1-(4-(methyl)phenethyl)-4-(4-fluorophenyl)piperazine)]	< 2	1.14 ± 0.1	excellent selective activity	> 50	152 to 153	> 50	> 50		weak cytotoxic effects						
O=C1c2ccccc2S(=O)(=O)N1Cc1ccc(CCN2CCN(c3ccc(F)cc3F)CC2)cc1 [Compound 13, Saccharin N-(1-(4-(methyl)phenethyl)-4-(2,4-difluorophenyl)piperazine)]	> 50			> 50	113 to 114	> 50	5.03 ± 0.13			excellent selective activity					
O=C1c2ccccc2S(=O)(=O)N1Cc1ccc(CCN2CCN(c3ccccc3Cl)CC2)cc1 [Compound 14, Saccharin N-(1-(4-(methyl)phenethyl)-4-(2-chlorophenyl)piperazine)]	3.39 ± 0.11		excellent selective activity	14.6 ± 1.12	135 to 136		> 50								
O=C1c2ccccc2S(=O)(=O)N1Cc1ccc(CCN2CCN(c3cccc(Cl)c3)CC2)cc1 [Compound 15, Saccharin N-(1-(4-(methyl)phenethyl)-4-(3-chlorophenyl)piperazine)]	> 50			2.74 ± 0.11	143 to 144	> 50	3.43 ± 0.16								
O=C1c2ccccc2S(=O)(=O)N1Cc1ccc(CCN2CCN(c3ccc(Cl)cc3)CC2)cc1 [Compound 16]	> 50			> 50	158 to 159		> 50				weak cytotoxic activity	weak cytotoxic activity			
O=C1c2ccccc2S(=O)(=O)N1Cc1ccc(CCN2CCN(c3cccc(Cl)c3Cl)CC2)cc1 [Compound 17, Saccharin N-(1-(4-(methyl)phenethyl)-4-(2,3-dichlorophenyl)piperazine)]	> 50			> 50	178 to 179	> 50	4.08 ± 0.15		weak cytotoxic effects	excellent selective activity					
O=C1c2ccccc2S(=O)(=O)N1Cc1ccc(CCN2CCN(c3ccc(Br)cc3)CC2)cc1 [Compound 18, Saccharin N-(1-(4-(methyl)phenethyl)-4-(4-bromophenyl)piperazine)]	9.05 ± 0.23			2.25 ± 0.07	105 to 106	> 50	> 50								
N#Cc1ccccc1N1CCN(CCc2ccc(CN3C(=O)c4ccccc4S3(=O)=O)cc2)CC1 [Compound 19, Saccharin N-(2-(4-(4-(methyl)phenethyl)piperazin-1-yl)benzonitrile)]	> 50			> 50	146 to 147	39.15 ± 0.17	5.14 ± 0.16			excellent selective activity					
N#Cc1ccc(N2CCN(CCc3ccc(CN4C(=O)c5ccccc5S4(=O)=O)cc3)CC2)cc1 [Compound 20, Saccharin N-(4-(4-(4-(methyl)phenethyl)piperazin-1-yl)benzonitrile)]	> 50			2.66 ± 0.04	179 to 180	46.3 ± 0.51	3.43 ± 0.1								
O=C1c2ccccc2S(=O)(=O)N1Cc1ccc(CCN2CCN(c3ccc(C(F)(F)F)cc3)CC2)cc1 [Compound 21, Saccharin N-(1-(4-(methyl)phenethyl)-4-(4-(trifluoromethyl)phenyl)piperazine)]	> 50			3.73 ± 0.08	108 to 109		> 50	excellent selective activity							
CC(C)(C)NC(=O)[C@H]1CC[C@H]2[C@@H]3CC[C@H]4NC(=O)C=C[C@]4(C)[C@H]3CC[C@]12C [Finasteride]													17.8	13.5	14.5
COc1ccccc1N1CCN(CC(O)COc2cccc3ccccc23)CC1 (centres unmarked) [Naftopidil, reference compound]	34.58 ± 0.31			42.1 ± 0.79		> 50	22.4 ± 0.61								
